Data published in US11180474B2 (BRISTOL-MYERS SQUIBB COMPANY, priority 2016, dated 2021).

Target: T1, human TLR8 (Homo sapiens, UniProt Q9NR97)
T1 construct: host or cells: HEK-Blue cells
T1 sequence (Q9NR97 27-1041): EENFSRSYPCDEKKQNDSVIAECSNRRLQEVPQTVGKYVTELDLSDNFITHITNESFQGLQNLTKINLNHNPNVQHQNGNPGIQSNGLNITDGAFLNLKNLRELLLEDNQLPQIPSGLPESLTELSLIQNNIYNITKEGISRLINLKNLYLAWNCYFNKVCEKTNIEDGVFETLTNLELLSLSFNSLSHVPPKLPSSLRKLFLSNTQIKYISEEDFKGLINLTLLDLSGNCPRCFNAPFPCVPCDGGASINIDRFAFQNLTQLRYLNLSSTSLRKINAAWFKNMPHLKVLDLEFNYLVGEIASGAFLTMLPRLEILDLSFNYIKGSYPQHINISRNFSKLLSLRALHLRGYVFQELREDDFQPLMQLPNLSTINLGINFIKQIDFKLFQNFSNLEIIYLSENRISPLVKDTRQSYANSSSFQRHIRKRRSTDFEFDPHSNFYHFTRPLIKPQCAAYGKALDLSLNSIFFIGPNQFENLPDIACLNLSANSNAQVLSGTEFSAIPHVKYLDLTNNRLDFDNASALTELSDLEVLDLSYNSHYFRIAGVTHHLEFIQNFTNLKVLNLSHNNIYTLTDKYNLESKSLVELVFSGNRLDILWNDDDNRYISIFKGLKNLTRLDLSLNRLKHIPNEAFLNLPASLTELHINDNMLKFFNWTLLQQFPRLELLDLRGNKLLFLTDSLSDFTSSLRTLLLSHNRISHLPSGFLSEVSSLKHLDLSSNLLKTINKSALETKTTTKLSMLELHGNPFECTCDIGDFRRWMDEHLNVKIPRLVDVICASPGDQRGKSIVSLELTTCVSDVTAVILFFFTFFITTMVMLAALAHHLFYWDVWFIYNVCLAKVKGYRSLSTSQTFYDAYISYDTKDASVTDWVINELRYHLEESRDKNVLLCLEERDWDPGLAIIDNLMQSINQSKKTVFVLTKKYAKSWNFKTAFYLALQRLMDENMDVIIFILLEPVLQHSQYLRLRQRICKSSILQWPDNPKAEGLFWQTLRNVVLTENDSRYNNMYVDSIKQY
Test: TLR8 inhibition reporter assay (HEK-Blue cells, SEAP reporter, R848 stimulation)
Format: cell-based
Details: HEK-Blue cells overexpressing human TLR8, R848 15.9 μM
Procedure, shortened: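 SEAP readout via HEK-Blue Detection medium after 22 h at 37 °C, 5% CO2 defines inhibition, normalized between agonist-plus-DMSO wells and a reference inhibitor. Compound dose range 0.05 nM–50 μM; TLR7 cells at 15,000/well (gardiquimod), TLR8 at 20,000/well (R848).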

SMILES | IC50 [nM]
COc1ccc(-c2[nH]c3ccc(C4CCN(C(=O)CN5CCCC(C(=O)NC6CCN(C(C)C)CC6)C5)CC4)cc3c2C(C)C)cc1OC (single isomer, unassigned) [Example 281, 1-(2-(4-(2-(3,4-dimethoxyphenyl)-3-isopropyl-1H-indol-5-yl)piperidin-1-yl)-2-oxoethyl)-N-(1-isopropylpiperidin-4-yl)piperidine-3-carboxamide] | 20
COc1ccc(-c2[nH]c3ccc(C4CCN(C(=O)CN5CCC[C@@H](C(=O)N6CC7CNCC7C6)C5)CC4)cc3c2C(C)C)cc1OC (stereo partly drawn) [Example 310, 1-(4-(2-(3,4-dimethoxyphenyl)-3-isopropyl-1H-indol-5-yl)piperidin-1-yl)-2-((3R)-3-(octahydropyrrolo[3,4-c]pyrrole-2-carbonyl)piperidin-1-yl) ethan-1-one] | 488
COc1ccc(-c2[nH]c3ccc(C4CCN(C5CCN(C6CC6)CC5)CC4)cc3c2C)cc1OC [Example 23, 5-(1′-cyclopropyl-[1,4′-bipiperidin]-4-yl)-2-(3,4-dimethoxyphenyl)-3-methyl-1H-indole] | 151
COc1ccc(-c2[nH]c3ccc(C4CCN(C(=O)CN5CCC[C@H](C(=O)N6CCCC(O)C6)C5)CC4)cc3c2C(C)C)cc1OC (stereo partly drawn) [Example 292, 1-(4-(2-(3,4-dimethoxyphenyl)-3-isopropyl-1H-indol-5-yl)piperidin-1-yl)-2-((3S)-3-(3-hydroxypiperidine-1-carbonyl)piperidin-1-yl)ethan-1-one] | 22
COc1ccc(-c2[nH]c3ccc(C4CCN(C(=O)CN5CCC[C@H](C(=O)N6CCCC6)C5)CC4)cc3c2C(C)C)cc1OC [Example 287, (S)-1-(4-(2-(3,4-dimethoxyphenyl)-3-isopropyl-1H-indol-5-yl)piperidin-1-yl)-2-(3-(pyrrolidine-1-carbonyl)piperidin-1-yl)ethan-1-one] | 33

The next lines start with the values.

IC50 [nM] | SMILES
169 | COc1ccc(-c2[nH]c3ccc(C4CCN(C(=O)CN[C@H]5CC[C@H](N)CC5)CC4)cc3c2C(C)C)cc1OC [Example 232, 2-(((1r,4r)-4-aminocyclohexyl)amino)-1-(4-(2-(3,4-dimethoxyphenyl)-3-isopropyl-1H-indol-5-yl)piperidin-1-yl)ethan-1-one]
61 | COc1ccc(-c2[nH]c3ccc(C4CCN(C(=O)CN5CCC[C@@H](C(=O)N(C)C(C)C)C5)CC4)cc3c2C(C)C)cc1OC [Example 304, (R)-1-(2-(4-(2-(3,4-dimethoxyphenyl)-3-isopropyl-1H-indol-5-yl)piperidin-1-yl)-2-oxoethyl)-N-isopropyl-N-methylpiperidine-3-carboxamide]
27 | CCN(CC)C(=O)C1CCCN(CC(=O)N2CCC(c3ccc4[nH]c(-c5ccc(OC)c(OC)c5)c(C(C)C)c4c3)CC2)C1 (centres unmarked) [Example 224, 1-(2-(4-(2-(3,4-dimethoxyphenyl)-3-isopropyl-1H-indol-5-yl)piperidin-1-yl)-2-oxoethyl)-N,N-diethylpiperidine-3-carboxamide]
19 | COc1ccc(-c2[nH]c3ccc(C4CCN(C(=O)CNC5CCC(O)CC5)CC4)cc3c2C(C)C)cc1OC (centres unmarked) [Example 246, 1-(4-(2-(3,4-dimethoxyphenyl)-3-isopropyl-1H-indol-5-yl)piperidin-1-yl)-2-((4-hydroxycyclohexyl)amino)ethan-1-one]
82 | COc1ccc(-c2[nH]c3ccc(C4CCNCC4O)cc3c2C(C)C)cc1OC (single isomer, unassigned) [Example 317, 4-(2-(3,4-dimethoxyphenyl)-3-isopropyl-1H-indol-5-yl)piperidin-3-ol 2,2,2-trifluoroacetate]
24 | COc1ccc(-c2[nH]c3ccc(C4CCN(C(=O)CN(C)C(C)C)CC4)cc3c2C(C)C)cc1OC [Example 227, 1-(4-(2-(3,4-dimethoxyphenyl)-3-isopropyl-1H-indol-5-yl)piperidin-1-yl)-2-(isopropyl(methyl)amino) ethan-1-one]
